In BindingDB's records for doi:10.1021/co200147y (Bristol-Myers Squibb Research and Development, 2012):
Where “and” joins values, the source holds several entries; their conditions need not be identical. Equal entries are not always repeated.

target: Cannabinoid receptor 1 (Homo sapiens, UniProt P21554); experiment: Inhibition Assay
Text: Inhibition assay using hCB1.

Chain of Cannabinoid receptor 1 (P21554 whole entry): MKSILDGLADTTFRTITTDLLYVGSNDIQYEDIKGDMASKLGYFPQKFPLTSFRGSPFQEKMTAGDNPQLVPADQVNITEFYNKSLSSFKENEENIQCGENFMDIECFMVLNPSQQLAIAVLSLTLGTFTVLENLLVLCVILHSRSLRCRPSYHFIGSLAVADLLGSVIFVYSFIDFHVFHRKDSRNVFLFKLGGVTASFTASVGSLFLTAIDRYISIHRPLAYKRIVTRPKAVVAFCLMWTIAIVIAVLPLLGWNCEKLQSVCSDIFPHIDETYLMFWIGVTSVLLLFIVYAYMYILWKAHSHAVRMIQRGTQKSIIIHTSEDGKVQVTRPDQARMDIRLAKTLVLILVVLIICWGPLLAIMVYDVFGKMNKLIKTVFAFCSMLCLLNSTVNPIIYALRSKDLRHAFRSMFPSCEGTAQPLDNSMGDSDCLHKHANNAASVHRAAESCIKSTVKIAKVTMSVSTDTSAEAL

IC50	SMILES
0.2 µM	Cc1cccc(-n2ncc(C(=O)NCCCc3ccccc3)c2-c2ccc(-c3ccccc3)cc2)c1 [hCB1 Inhibitor, 2{1,1,7}]
2.7 µM	CCCCNC(=O)c1cnn(-c2cccc(C)c2)c1-c1ccc(-c2ccccc2)cc1 [hCB1 Inhibitor, 2{6,1,7}]
0.27 µM and 0.19 µM	O=C(NCC1CC1)c1cnn(-c2cccc(Cl)c2)c1-c1ccc(-c2ccccc2)cc1 [hCB1 Inhibitor, 2{5,1,1}]
0.39 µM	Cc1ccccc1-n1ncc(C(=O)NCC2CC2)c1-c1ccc(-c2ccccc2)cc1 [hCB1 Inhibitor, 2{5,1,6}]
0.2 µM and 0.04 µM	Cc1cccc(-n2ncc(C(=O)NCCCc3ccccc3)c2-c2ccc(-c3ccccc3)cc2)c1C [hCB1 Inhibitor, 2{1,1,8}]

Continued, compound first:

SMILES	IC50
Cc1cccc(-n2ncc(C(=O)NCC3CC3)c2-c2ccc(-c3ccccc3)cc2)c1 [hCB1 Inhibitor, 2{5,1,7}]	0.62 µM
CCCCNC(=O)c1cnn(-c2ccccc2C)c1-c1ccc(-c2ccccc2)cc1 [hCB1 Inhibitor, 2{6,1,6}]	2.8 µM
O=C(NCCCc1ccccc1)c1cnn(-c2cccc(Cl)c2)c1-c1ccc(-c2ccccc2)cc1 [hCB1 Inhibitor, 2{1,1,1}]	0.41 µM and 0.2 µM
Cc1ccccc1-n1ncc(C(=O)NCCCc2ccccc2)c1-c1ccc(-c2ccccc2)cc1 [hCB1 Inhibitor, 2{1,1,6}]	0.2 µM
O=C(NCCCc1ccccc1)c1cnn(-c2cccc3ccccc23)c1-c1ccc(-c2ccccc2)cc1 [hCB1 Inhibitor, 2{1,1,3}]	0.09 µM
CCCCNC(=O)c1cnn(-c2cccc(Cl)c2)c1-c1ccc(-c2ccccc2)cc1 [hCB1 Inhibitor, 2{6,1,1}]	0.5 µM and 0.35 µM
